Measurements: patent US20240350493A1 (Kadmon Corporation, LLC, priority 2022, published 2024)
Where a name gives a salt, the structure may show the parent alone. Marks after values point to notes of the source that are not given here.

Tests used:
[1] = phase I two-part drug-drug interaction study, plasma pharmacokinetics (Example 1); format: in vivo, human
Text: The secondary objective was to provide additional information on the safety and tolerability of this dose regimen in healthy males.
This was a single center, non-randomized, DDI study in 35 (Part 1) and 38 (Part 2) healthy males. The key inclusion criterion was males aged 18 to 55 years (inclusive). […] In Part 2, co-administration with omeprazole was studied. The study design is illustrated in FIG. 1.
At least a 2-to 8-day washout occurred between each period to account for a minimum of 5 half-lives of the active moieties dosed in the preceding period.
Blood samples were collected into 6 mL K,EDTA tubes and were processed within 30 minutes of collection. The resultant plasma was then frozen within 90 minutes of collection and stored at […] until shipment to the bioanalytical laboratory.
For each comparison, PK parameters were natural log transformed and analyzed using mixed effect modeling with treatment included as a fixed effect and subject as a random effect. Adjusted geometric mean ratios (GMRs) and corresponding 90% CIs were calculated.

[2] = target: ROCK2 (Homo sapiens, UniProt O75116); assay: ROCK2 inhibition; format: biochemical
[3] = human, in vivo
[4] = solubility of belumosudil mesylate in solvents; format: physicochemical
[5] = tested on: patients with cGVHD; settings: cited from earlier work
[6] = 200 mg belumosudil BID + omeprazole
[7] = 200 mg belumosudil BID + omeprazole, first dose
[8] = 200 mg belumosudil BID + omeprazole, second dose
[9] = 200 mg belumosudil BID alone, first dose
[10] = 200 mg belumosudil BID alone, second dose
[11] = 200 mg belumosudil single dose + itraconazole
[12] = 200 mg belumosudil single dose + rabeprazole
[13] = 200 mg belumosudil single dose + rifampicin
[14] = 200 mg belumosudil single dose alone
[15] = coadministration of itraconazole
[16] = coadministration of rabeprazole

Chain of ROCK2 (O75116 whole entry): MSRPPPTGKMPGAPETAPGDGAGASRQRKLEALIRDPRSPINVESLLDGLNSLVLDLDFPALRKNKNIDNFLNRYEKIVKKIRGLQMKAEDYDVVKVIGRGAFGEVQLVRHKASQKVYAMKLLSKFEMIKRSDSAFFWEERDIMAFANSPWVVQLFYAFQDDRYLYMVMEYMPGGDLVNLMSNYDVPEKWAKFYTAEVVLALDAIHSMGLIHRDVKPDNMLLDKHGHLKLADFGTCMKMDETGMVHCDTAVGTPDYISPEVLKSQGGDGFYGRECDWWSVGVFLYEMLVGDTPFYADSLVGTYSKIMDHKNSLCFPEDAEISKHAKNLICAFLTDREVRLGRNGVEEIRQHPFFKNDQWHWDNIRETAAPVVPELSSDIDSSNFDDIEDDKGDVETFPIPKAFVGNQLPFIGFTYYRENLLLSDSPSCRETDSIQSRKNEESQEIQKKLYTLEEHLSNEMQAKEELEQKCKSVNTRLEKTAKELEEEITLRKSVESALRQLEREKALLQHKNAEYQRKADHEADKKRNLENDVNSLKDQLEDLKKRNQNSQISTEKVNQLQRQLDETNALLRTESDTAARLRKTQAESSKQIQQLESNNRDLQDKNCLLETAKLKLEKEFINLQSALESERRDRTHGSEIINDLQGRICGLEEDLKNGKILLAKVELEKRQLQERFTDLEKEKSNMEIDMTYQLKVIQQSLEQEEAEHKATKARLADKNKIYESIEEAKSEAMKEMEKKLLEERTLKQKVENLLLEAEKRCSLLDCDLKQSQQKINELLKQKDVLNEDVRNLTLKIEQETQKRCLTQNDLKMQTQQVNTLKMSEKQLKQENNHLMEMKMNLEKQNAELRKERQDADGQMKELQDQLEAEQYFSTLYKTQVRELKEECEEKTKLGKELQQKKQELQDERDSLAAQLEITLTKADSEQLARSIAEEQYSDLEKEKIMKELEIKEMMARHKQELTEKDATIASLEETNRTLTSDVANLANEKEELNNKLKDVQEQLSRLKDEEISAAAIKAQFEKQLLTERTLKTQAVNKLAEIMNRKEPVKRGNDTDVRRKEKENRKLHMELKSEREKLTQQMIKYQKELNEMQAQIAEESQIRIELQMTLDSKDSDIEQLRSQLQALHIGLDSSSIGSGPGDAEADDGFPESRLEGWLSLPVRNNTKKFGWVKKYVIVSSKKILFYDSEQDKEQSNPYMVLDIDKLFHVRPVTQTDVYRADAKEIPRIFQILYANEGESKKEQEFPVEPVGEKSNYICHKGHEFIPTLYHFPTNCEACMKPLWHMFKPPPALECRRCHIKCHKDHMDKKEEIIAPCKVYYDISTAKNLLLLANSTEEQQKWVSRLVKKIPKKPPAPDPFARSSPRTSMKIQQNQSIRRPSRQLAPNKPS

## O=C(O)COc1cccc(-c2nc(Nc3ccc4[nH]ncc4c3)c3ccccc3n2)c1 [KD025m2]
[1]; [6]
  AUC0-24, geometric mean (geometric CV %): 767 (115.3) ^k; ng*h/mL
  AUCinf, arithmetic mean (SD): 1430 (981) ^q ng*h/mL
  AUCinf, geometric mean (geometric CV %): 1110 (90.3) ^q; ng*h/mL
  AUClast, arithmetic mean (SD): 1160 (998) ^k ng*h/mL
  AUClast, geometric mean (geometric CV %): 783 (122.6) ^k; ng*h/mL
  t1/2, arithmetic mean (SD): 3.20 (2.10) ^r h
  t1/2, geometric mean (geometric CV %): 2.76 (55.1) ^r h
[1]; [7]
  Cmax, arithmetic mean (SD): 129 (133) ^l ng/mL
  Cmax, geometric mean (geometric CV %): 72.3 (166.8) ^l; ng/mL
[1]; [8]
  Cmax, arithmetic mean (SD): 172 (160) ^n ng/mL
  Cmax, geometric mean (geometric CV %): 115 (121.8) ^n; ng/mL
[1]; 200 mg belumosudil BID alone
  AUC0-24, geometric mean (geometric CV %): 1950 (82.3) ^k; ng*h/mL
  AUCinf, arithmetic mean (SD): 2550 (2200) ^c ng*h/mL
  AUCinf, geometric mean (geometric CV %): 1900 (90.4) ^c; ng*h/mL
  AUClast, arithmetic mean (SD): 2690 (2090) ^k ng*h/mL
  AUClast, geometric mean (geometric CV %): 2030 (91.1) ^k; ng*h/mL
  t1/2, arithmetic mean (SD): 5.70 (5.24) ^c h
  t1/2, geometric mean (geometric CV %): 4.32 (78.9) ^c h
[1]; [9]
  Cmax, arithmetic mean (SD): 343 (202) ^k ng/mL
  Cmax, geometric mean (geometric CV %): 282 (75.6) ^k; ng/mL
[1]; [10]
  Cmax, arithmetic mean (SD): 323 (207) ng/mL
  Cmax, geometric mean (geometric CV %): 257 (83.9); ng/mL
[1]; [11]
  AUC0-24, geometric mean (geometric CV %): 745 (70.7); ng*h/mL
  AUCinf, arithmetic mean (SD): 1050 (792) ^c ng*h/mL
  AUCinf, geometric mean (geometric CV %): 843 (73.7) ^c; ng*h/mL
  AUClast, arithmetic mean (SD): 891 (710) ng*h/mL
  AUClast, geometric mean (geometric CV %): 704 (75.5); ng*h/mL
  Cmax, arithmetic mean (SD): 257 (152) ng/mL
  Cmax, geometric mean (geometric CV %): 221 (60.8); ng/mL
  t1/2, arithmetic mean (SD): 4.00 (3.69) ^g h
  t1/2, geometric mean (geometric CV %): 2.89 (92.2) ^g h
[1]; [12]
  AUC0-24, geometric mean (geometric CV %): 110 (84.0) ^v; ng*h/mL
  AUCinf, arithmetic mean (SD): 175 (19.4) ^t ng*h/mL
  AUCinf, geometric mean (geometric CV %): 174 (11.1) ^t; ng*h/mL
  AUClast, arithmetic mean (SD): 108 (76.5) ^v ng*h/mL
  AUClast, geometric mean (geometric CV %): 85.8 (81.6) ^v; ng*h/mL
  Cmax, arithmetic mean (SD): 29.4 (23.8) ^c ng/mL
  Cmax, geometric mean (geometric CV %): 23.5 (70.7) ^c; ng/mL
  t1/2, arithmetic mean (SD): 3.59 (1.84) ^w h
  t1/2, geometric mean (geometric CV %): 3.10 (69.6) ^w h
[1]; [13]
  AUC0-24, geometric mean (geometric CV %): 376 (56.7) ^c; ng*h/mL
  AUCinf, arithmetic mean (SD): 444 (237) ^h ng*h/mL
  AUCinf, geometric mean (geometric CV %): 396 (50.2) ^h; ng*h/mL
  AUClast, arithmetic mean (SD): 407 (237) ^c ng*h/mL
  AUClast, geometric mean (geometric CV %): 349 (61.1) ^c; ng*h/mL
  Cmax, arithmetic mean (SD): 169 (85.8) ^c ng/mL
  Cmax, geometric mean (geometric CV %): 148 (57.3) ^c; ng/mL
  t1/2, arithmetic mean (SD): 1.31 (0.368) ^h
  t1/2, geometric mean (geometric CV %): 1.27 (26.8) ^h
[1]; [14]
  AUC0-24, geometric mean (geometric CV %): 1100 (63.7); ng*h/mL
  AUCinf, arithmetic mean (SD): 1460 (910) ^d ng*h/mL
  AUCinf, geometric mean (geometric CV %): 1230 (69.5) ^d; ng*h/mL
  AUClast, arithmetic mean (SD): 1260 (811) ng*h/mL
  AUClast, geometric mean (geometric CV %): 1050 (68.1); ng*h/mL
  Cmax, arithmetic mean (SD): 379 (182) ng/mL
  Cmax, geometric mean (geometric CV %): 337 (54.7); ng/mL
  t1/2, arithmetic mean (SD): 3.86 (3.24) ^d h
  t1/2, geometric mean (geometric CV %): 3.03 (76.8) ^d h
[1]; [15]
  decrease in AUCinf vs belumosudil alone: 33%
  decrease in AUClast vs belumosudil alone: 33%
  decrease in Cmax vs belumosudil alone: 35%
[1]; coadministration of omeprazole
  decrease in AUC0-24 vs belumosudil alone: ~63%
  decrease in Cmax (first dose) vs belumosudil alone: ~73%
  decrease in Cmax, second dose vs belumosudil alone: ~57%
[1]; [16]
  decrease in AUClast vs belumosudil alone: 94%
  decrease in Cmax vs belumosudil alone: 93%
[2]
  ROCK2 activity of metabolite: inactive

## NC(=O)COc1cccc(-c2nc(Nc3ccc4[nH]ncc4c3)c3ccccc3n2)c1 [KD025m1]
[1]
  increase in AUClast vs belumosudil alone: 150%
  increase in Cmax vs belumosudil alone: 129%
[1]; [6]
  AUC0-24, arithmetic mean (SD): 113 (81.2) ^q ng*h/mL
  AUC0-24, geometric mean (geometric CV %): 91.5 (76.3) ^q; ng*h/mL
  AUCinf, arithmetic mean (SD): 279 (122) ^t ng*h/mL
  AUCinf, geometric mean (geometric CV %): 265 (47.6) ^t; ng*h/mL
  AUClast, arithmetic mean (SD): 164 (100) ^q ng*h/mL
  AUClast, geometric mean (geometric CV %): 123 (114.0) ^q; ng*h/mL
  t1/2, arithmetic mean (SD): 2.31 (0.848) ^u h
  t1/2, geometric mean (geometric CV %): 2.21 (39.0) ^u; h
[1]; [7]
  Cmax, arithmetic mean (SD): 20.5 (11.4) ^j ng/mL
  Cmax, geometric mean (geometric CV %): 18.0 (54.6) ^j; ng/mL
  Tmax, median (range): 3.00 (1.00-5.00) h
[1]; [8]
  Cmax, arithmetic mean (SD): 21.2 (11.3) ^s ng/mL
  Cmax, geometric mean (geometric CV %): 18.9 (48.7) ^s; ng/mL
  Tmax, median (range): 16.50 (13.50-22.00) h
[1]; 200 mg belumosudil BID alone
  AUC0-24, arithmetic mean (SD): 187 (161) ^l ng*h/mL
  AUC0-24, geometric mean (geometric CV %): 138 (91.3) ^l; ng*h/mL
  AUCinf, arithmetic mean (SD): 287 (149) ^o ng*h/mL
  AUCinf, geometric mean (geometric CV %): 259 (47.7) ^o; ng*h/mL
  AUClast, arithmetic mean (SD): 205 (153) ^l ng*h/mL
  AUClast, geometric mean (geometric CV %): 157 (93.0) ^l; ng*h/mL
  t1/2, arithmetic mean (SD): 2.30 (0.757) ^p h
  t1/2, geometric mean (geometric CV %): 2.19 (34.2) ^p; h
[1]; [9]
  Cmax, arithmetic mean (SD): 25.8 (12.6) ^n ng/mL
  Cmax, geometric mean (geometric CV %): 23.8 (39.6) ^n; ng/mL
  Tmax, median (range): 2.00 (1.00-6.00) h
[1]; [10]
  Cmax, arithmetic mean (SD): 26.1 (12.7) ^n ng/mL
  Cmax, geometric mean (geometric CV %): 23.6 (46.4) ^n; ng/mL
  Tmax, median (range): 13.98 (13.00-24.00) h
[1]; [13]
  AUC0-24, arithmetic mean (SD): 159 (61.2) ^c ng*h/mL
  AUC0-24, geometric mean (geometric CV %): 148 (41.9) ^c; ng*h/mL
  AUCinf, arithmetic mean (SD): 190 (37.7) ^i ng*h/mL
  AUCinf, geometric mean (geometric CV %): 187 (20.0) ^i; ng*h/mL
  AUClast, arithmetic mean (SD): 136 (55.5) ^c ng*h/mL
  AUClast, geometric mean (geometric CV %): 126 (41.7) ^c; ng*h/mL
  Cmax, arithmetic mean (SD): 55.2 (17.1) ^c ng/mL
  Cmax, geometric mean (geometric CV %): 52.5 (34.0) ^c; ng/mL
  Tmax, median (range): 2.08 (1.50-5.00) h
  t1/2, arithmetic mean (SD): 1.55 (0.325) ^j h
  t1/2, geometric mean (geometric CV %): 1.51 (21.4) ^j; h
[1]; [14]
  AUC0-24, arithmetic mean (SD): 81.3 (30.7) ^e ng*h/mL
  AUC0-24, geometric mean (geometric CV %): 75.6 (42.1) ^e; ng*h/mL
  AUClast, arithmetic mean (SD): 58.4 (18.7) ^e ng*h/mL
  AUClast, geometric mean (geometric CV %): 55.3 (36.4) ^e; ng*h/mL
  Cmax, arithmetic mean (SD): 24.9 (9.21) ^b ng/mL
  Cmax, geometric mean (geometric CV %): 23.2 (40.0) ^b; ng/mL
  Tmax, median (range): 3.00 (1.00-5.00) h
  t1/2, arithmetic mean (SD): 1.96 (0.931) ^f h
  t1/2, geometric mean (geometric CV %): 1.82 (38.5) ^f; h
[1]; [15]
  metabolite concentrations: nonquantifiable levels in all but 1 subject
[1]; [16]
  metabolite levels: nonquantifiable in all but 1 subject
[3]
  metabolite exposure relative to the parent: < 5%
[2]
  ROCK2 activity of metabolite: active

## CC(C)NC(=O)COc1cccc(-c2nc(Nc3ccc4[nH]ncc4c3)c3ccccc3n2)c1 [Belumosudil mesylate, 2-{3-[4-(1H-indazol-5-ylamino)-2-quinazolinyl]phenoxy}-N-(propan-2-yl) acetamide methanesulfonate (1:1)]
[4]; DMF
  solubility in DMF: slightly soluble
[4]; DMSO
  solubility in DMSO: soluble
[4]; methanol
  solubility in methanol: slightly soluble
[4]; water
  solubility in water: practically insoluble

## C=CC(=O)N1CCC[C@@H](n2nc(-c3ccc(Oc4ccccc4)cc3)c3c(N)ncnc32)C1 [ibrutinib]
[5]
  discontinuation rate because of treatment-emergent adverse events (TEAEs): 43%
